Data published in the NIST ThermoML archive (doi:10.1021/acs.jced.7b01030).
Several values for one entry are separate records, joined by “and”; a condition that tells them apart may be missing. Equal entries are not always repeated.

Settings: Liquid; for self diffusion coefficient: NMR spin-echo technique; for viscosity: Falling or rolling sphere viscometry; for mass density: Vibrating tube method

OCC(F)(F)F [2,2,2-trifluoroethanol]
Settings	mass density	self diffusion coefficient [m2/s]	viscosity
253.24 K, 100 kPa	–	1.33e-10	–
258.45 K, 100 kPa	–	1.68e-10	–
258.49 K, 100 kPa	–	1.68e-10	–
263.15 K, 100 kPa	–	–	5.502 mPa·s and 5.485 mPa·s
263.15 K, 9900 kPa	–	–	6.125 mPa·s
263.15 K, 10000 kPa	–	–	6.134 mPa·s
263.15 K, 24500 kPa	–	–	7.159 mPa·s
263.15 K, 24600 kPa	–	–	7.168 mPa·s
263.15 K, 50500 kPa	–	–	9.212 mPa·s
263.15 K, 50600 kPa	–	–	9.203 mPa·s
263.15 K, 75500 kPa	–	–	11.52 mPa·s and 11.51 mPa·s
263.15 K, 100200 kPa	–	–	14.28 mPa·s
263.15 K, 101000 kPa	–	–	14.38 mPa·s
263.15 K, 131600 kPa	–	–	18.4 mPa·s
263.15 K, 132200 kPa	–	–	18.53 mPa·s
263.37 K, 100 kPa	–	2.05e-10	–
263.39 K, 100 kPa	–	2.06e-10	–
268.15 K, 100 kPa	–	–	4.517 mPa·s and 4.513 mPa·s
272.82 K, 79000 kPa	–	1.66e-10	–
272.84 K, 25700 kPa	–	2.48e-10	–
272.86 K, 100 kPa	–	3.06e-10	–
272.87 K, 100 kPa	–	3.06e-10	–
272.9 K, 200500 kPa	–	7.6e-11	–
272.91 K, 299000 kPa	–	4.23e-11	–
272.93 K, 249000 kPa	–	5.7e-11	–
272.99 K, 150000 kPa	–	1.04e-10	–
273.09 K, 98000 kPa	–	1.46e-10	–
273.15 K, 100 kPa	1424.26 kg/m3	–	3.798 mPa·s [middle of 5 runs]
273.15 K, 10400 kPa	–	–	4.226 mPa·s
273.15 K, 10500 kPa	–	–	4.224 mPa·s
273.15 K, 25500 kPa	–	–	4.909 mPa·s and 4.905 mPa·s
273.15 K, 50500 kPa	–	–	6.179 mPa·s and 6.166 mPa·s
273.15 K, 75000 kPa	–	–	7.57 mPa·s
273.15 K, 75500 kPa	–	–	7.582 mPa·s
273.15 K, 99800 kPa	–	–	9.373 mPa·s
273.15 K, 100300 kPa	–	–	9.375 mPa·s
273.15 K, 125600 kPa	–	–	11.37 mPa·s and 11.45 mPa·s
273.15 K, 125700 kPa	–	–	11.39 mPa·s
273.15 K, 150300 kPa	–	–	13.73 mPa·s
273.15 K, 150700 kPa	–	–	13.79 mPa·s
273.15 K, 176200 kPa	–	–	16.53 mPa·s
273.15 K, 176400 kPa	–	–	16.61 mPa·s
273.15 K, 201100 kPa	–	–	19.6 mPa·s and 19.51 mPa·s
273.15 K, 233500 kPa	–	–	24.25 mPa·s
273.15 K, 233700 kPa	–	–	24.29 mPa·s
273.25 K, 100 kPa	–	3.07e-10	–
273.25 K, 50000 kPa	–	2.04e-10	–
273.8 K, 100 kPa	–	3.3e-10	–
278.15 K, 100 kPa	1416.08 kg/m3	–	3.311 mPa·s and 3.305 mPa·s
278.59 K, 100 kPa	–	3.94e-10	–
278.63 K, 100 kPa	–	3.87e-10	–
283.15 K, 100 kPa	1407.84 kg/m3 and 1407.85 kg/m3	–	2.746 mPa·s and 2.749 mPa·s
288.15 K, 100 kPa	1399.56 kg/m3	–	2.363 mPa·s and 2.368 mPa·s
288.53 K, 100 kPa	–	5.41e-10	–
288.56 K, 100 kPa	–	5.3e-10	–
293.15 K, 100 kPa	1391.18 kg/m3 and 1391.19 kg/m3	–	2.077 mPa·s [middle of 4 runs]
298.15 K, 100 kPa	1382.73 kg/m3 and 1382.71 kg/m3	–	1.781 mPa·s [middle of 7 runs]
298.15 K, 10200 kPa	–	–	1.98 mPa·s and 1.981 mPa·s
298.15 K, 25400 kPa	–	–	2.267 mPa·s and 2.264 mPa·s
298.15 K, 49900 kPa	–	–	2.755 mPa·s
298.15 K, 50200 kPa	–	–	2.773 mPa·s
298.15 K, 74900 kPa	–	–	3.317 mPa·s
298.15 K, 75100 kPa	–	–	3.314 mPa·s
298.15 K, 100400 kPa	–	–	3.929 mPa·s
298.15 K, 100600 kPa	–	–	3.938 mPa·s
298.15 K, 125200 kPa	–	–	4.612 mPa·s
298.15 K, 125400 kPa	–	–	4.61 mPa·s
298.15 K, 150100 kPa	–	–	5.347 mPa·s
298.15 K, 175000 kPa	–	–	6.198 mPa·s
298.15 K, 175200 kPa	–	–	6.197 mPa·s
298.15 K, 197500 kPa	–	–	6.965 mPa·s
298.15 K, 197800 kPa	–	–	6.993 mPa·s
298.15 K, 200700 kPa	–	–	7.21 mPa·s
298.15 K, 201700 kPa	–	–	7.297 mPa·s
298.15 K, 224400 kPa	–	–	8.254 mPa·s
298.15 K, 226100 kPa	–	–	8.33 mPa·s
298.15 K, 256900 kPa	–	–	9.931 mPa·s
298.15 K, 258400 kPa	–	–	10.03 mPa·s
298.15 K, 276700 kPa	–	–	10.98 mPa·s
298.15 K, 277800 kPa	–	–	11.04 mPa·s
298.15 K, 300600 kPa	–	–	12.3 mPa·s
298.15 K, 301600 kPa	–	–	12.43 mPa·s
298.15 K, 325400 kPa	–	–	13.99 mPa·s
298.15 K, 326500 kPa	–	–	14.06 mPa·s
298.15 K, 348800 kPa	–	–	15.77 mPa·s
298.15 K, 351100 kPa	–	–	15.95 mPa·s
298.26 K, 100 kPa	–	6.91e-10	–
298.32 K, 100 kPa	–	6.96e-10	–
298.34 K, 100 kPa	–	7.21e-10	–
298.35 K, 100 kPa	–	7.06e-10	–
298.36 K, 100 kPa	–	6.95e-10	–
298.55 K, 100 kPa	–	6.99e-10	–
299.89 K, 25000 kPa	–	6.08e-10	–
299.91 K, 50000 kPa	–	5.11e-10	–
299.91 K, 72500 kPa	–	4.38e-10	–
299.92 K, 100 kPa	–	7.35e-10	–
299.92 K, 300000 kPa	–	1.32e-10	–
299.93 K, 98000 kPa	–	3.77e-10	–
299.93 K, 199000 kPa	–	2.14e-10	–
299.94 K, 149000 kPa	–	2.87e-10	–
299.94 K, 350000 kPa	–	1.09e-10	–
299.98 K, 250000 kPa	–	1.72e-10	–
300.4 K, 100 kPa	–	7.52e-10	–
303.15 K, 100 kPa	–	–	1.574 mPa·s and 1.565 mPa·s
